# Columns and labels:
# Assay type in all cases: cell-based
# human TLR7 = molecular target: T1, human TLR7 (Homo sapiens, UniProt Q9NYK1); test: TLR7 inhibition reporter assay (HEK-Blue cells, SEAP reporter, gardiquimod stimulation); details: HEK-Blue cells overexpressing human TLR7, SEAP reporter, gardiquimod 7.5 μM; read-out: TLR7 IC50
# T1 construct: host or cells: HEK-Blue cells
# T1 sequence (Q9NYK1 27-1049): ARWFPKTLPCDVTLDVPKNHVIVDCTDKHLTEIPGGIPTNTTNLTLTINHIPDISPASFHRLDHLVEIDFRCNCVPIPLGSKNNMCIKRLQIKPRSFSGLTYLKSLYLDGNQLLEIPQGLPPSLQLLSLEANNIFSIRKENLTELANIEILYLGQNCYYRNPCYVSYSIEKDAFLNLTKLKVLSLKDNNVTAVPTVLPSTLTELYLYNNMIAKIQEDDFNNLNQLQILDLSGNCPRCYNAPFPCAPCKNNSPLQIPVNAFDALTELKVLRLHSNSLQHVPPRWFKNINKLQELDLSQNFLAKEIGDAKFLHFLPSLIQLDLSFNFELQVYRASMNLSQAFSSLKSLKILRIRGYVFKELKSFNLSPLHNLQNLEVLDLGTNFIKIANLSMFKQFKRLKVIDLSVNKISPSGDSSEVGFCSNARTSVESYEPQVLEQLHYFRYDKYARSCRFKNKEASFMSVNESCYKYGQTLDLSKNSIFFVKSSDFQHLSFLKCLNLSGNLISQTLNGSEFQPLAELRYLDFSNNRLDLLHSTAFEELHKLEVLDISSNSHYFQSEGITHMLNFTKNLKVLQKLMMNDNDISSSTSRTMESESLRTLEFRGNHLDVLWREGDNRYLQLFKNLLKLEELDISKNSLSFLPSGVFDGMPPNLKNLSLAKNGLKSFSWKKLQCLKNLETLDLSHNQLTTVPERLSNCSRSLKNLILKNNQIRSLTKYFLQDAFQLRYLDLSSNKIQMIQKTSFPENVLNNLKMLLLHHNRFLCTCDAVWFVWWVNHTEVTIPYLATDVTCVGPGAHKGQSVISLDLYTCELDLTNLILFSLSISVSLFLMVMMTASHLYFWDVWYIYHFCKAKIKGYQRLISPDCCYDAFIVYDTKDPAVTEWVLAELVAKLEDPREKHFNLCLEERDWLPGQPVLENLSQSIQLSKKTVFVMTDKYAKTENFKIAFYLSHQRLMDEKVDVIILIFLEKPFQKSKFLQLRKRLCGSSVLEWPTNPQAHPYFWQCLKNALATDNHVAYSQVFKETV
# How it was run: (§1)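 Screening used HEK-Blue cells overexpressing one human TLR (7, 8 or 9) and an IFN-β minimal promoter–NF-κB/AP-1 SEAP construct. Stimulation lasted 22 h at 37 °C with receptor-specific agonist: gardiquimod, R848 or ODN2006 at 7.5 μM, 15.9 μM and 5 nM.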
# human TLR8 = molecular target: T2, human TLR8 (Homo sapiens, UniProt Q9NR97); test: TLR8 inhibition reporter assay (HEK-Blue cells, SEAP reporter, R848 stimulation); details: HEK-Blue cells overexpressing human TLR8, SEAP reporter, R848 15.9 μM; read-out: TLR8 IC50
# T2 construct: host or cells: HEK-Blue cells
# T2 sequence (Q9NR97 27-1041): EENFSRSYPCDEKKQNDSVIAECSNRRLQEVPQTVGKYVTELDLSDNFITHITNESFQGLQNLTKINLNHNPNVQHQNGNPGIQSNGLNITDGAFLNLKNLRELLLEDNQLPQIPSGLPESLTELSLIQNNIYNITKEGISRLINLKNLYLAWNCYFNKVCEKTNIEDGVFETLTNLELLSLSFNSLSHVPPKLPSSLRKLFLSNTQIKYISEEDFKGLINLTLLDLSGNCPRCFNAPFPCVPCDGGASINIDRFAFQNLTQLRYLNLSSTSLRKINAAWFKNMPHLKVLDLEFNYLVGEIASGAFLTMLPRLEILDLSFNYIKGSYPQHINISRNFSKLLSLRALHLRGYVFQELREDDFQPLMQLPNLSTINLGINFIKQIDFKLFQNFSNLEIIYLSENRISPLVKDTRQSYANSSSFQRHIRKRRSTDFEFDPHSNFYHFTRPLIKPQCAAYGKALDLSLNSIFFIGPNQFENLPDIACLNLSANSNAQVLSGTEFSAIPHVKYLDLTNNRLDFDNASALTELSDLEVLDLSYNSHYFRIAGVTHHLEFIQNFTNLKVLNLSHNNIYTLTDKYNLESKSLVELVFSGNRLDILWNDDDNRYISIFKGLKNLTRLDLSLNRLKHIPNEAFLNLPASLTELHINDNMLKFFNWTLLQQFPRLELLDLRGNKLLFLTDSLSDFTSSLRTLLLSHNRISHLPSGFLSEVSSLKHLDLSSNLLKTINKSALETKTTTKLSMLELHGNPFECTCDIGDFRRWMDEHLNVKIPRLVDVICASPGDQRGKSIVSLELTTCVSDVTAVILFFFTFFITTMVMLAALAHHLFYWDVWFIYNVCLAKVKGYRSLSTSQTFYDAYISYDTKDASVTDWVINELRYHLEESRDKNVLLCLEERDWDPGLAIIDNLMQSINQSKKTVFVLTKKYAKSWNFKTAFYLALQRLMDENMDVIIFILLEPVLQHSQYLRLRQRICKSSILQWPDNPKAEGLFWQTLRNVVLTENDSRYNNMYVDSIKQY
# How it was run: as §1
# human TLR9 = molecular target: T3, human TLR9 (Homo sapiens, UniProt Q9NR96); test: TLR9 inhibition reporter assay (HEK-Blue cells, SEAP reporter, ODN2006 stimulation); details: HEK-Blue cells overexpressing human TLR9, SEAP reporter, ODN2006 5 nM
# T3 construct: host or cells: HEK-Blue cells
# T3 sequence (Q9NR96 26-1032): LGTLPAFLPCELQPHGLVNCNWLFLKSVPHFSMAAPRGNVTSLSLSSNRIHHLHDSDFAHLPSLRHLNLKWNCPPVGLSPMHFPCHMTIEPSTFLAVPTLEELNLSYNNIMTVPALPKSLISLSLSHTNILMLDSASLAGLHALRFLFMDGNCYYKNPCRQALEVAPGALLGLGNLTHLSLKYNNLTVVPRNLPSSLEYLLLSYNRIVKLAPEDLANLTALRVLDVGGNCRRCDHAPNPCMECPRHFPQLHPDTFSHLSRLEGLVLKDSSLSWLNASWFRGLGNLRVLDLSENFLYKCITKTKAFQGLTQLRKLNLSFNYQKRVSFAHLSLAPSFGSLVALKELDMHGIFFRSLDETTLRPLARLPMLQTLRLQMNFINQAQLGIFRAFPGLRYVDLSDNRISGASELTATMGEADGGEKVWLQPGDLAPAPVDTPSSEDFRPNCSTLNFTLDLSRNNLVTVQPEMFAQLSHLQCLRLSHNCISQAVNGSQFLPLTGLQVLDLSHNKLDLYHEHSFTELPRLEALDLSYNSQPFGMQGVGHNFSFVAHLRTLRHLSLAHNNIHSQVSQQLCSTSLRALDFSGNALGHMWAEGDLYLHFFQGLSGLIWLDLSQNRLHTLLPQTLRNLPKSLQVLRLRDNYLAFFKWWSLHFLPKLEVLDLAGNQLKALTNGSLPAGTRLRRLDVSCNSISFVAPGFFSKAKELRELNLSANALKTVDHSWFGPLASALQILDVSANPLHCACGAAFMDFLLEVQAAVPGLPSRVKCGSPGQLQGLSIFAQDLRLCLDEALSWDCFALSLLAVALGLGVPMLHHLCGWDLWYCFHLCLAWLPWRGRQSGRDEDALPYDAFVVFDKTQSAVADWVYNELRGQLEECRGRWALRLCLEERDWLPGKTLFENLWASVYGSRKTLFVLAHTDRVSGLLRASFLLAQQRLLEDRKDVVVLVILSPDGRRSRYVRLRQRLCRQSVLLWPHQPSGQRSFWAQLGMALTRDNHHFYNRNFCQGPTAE
# How it was run: as §1
Compound,IC50 (human TLR7) [nM],IC50 (human TLR8) [nM],IC50 (human TLR9) [µM]
"CC(C)c1c(-c2cn(C)c3ncccc23)[nH]c2sc(C3CCN(C4CCOCC4)CC3)nc12 [Example 35, 6-isopropyl-5-(1-methyl-1H-pyrrolo[2,3-b]pyridin-3-yl)-2-(1-(tetrahydro-2H-pyran-4-yl)piperidin-4-yl)-4H-pyrrolo[3,2-d]thiazole]",2.77,0.79,4.35
"CC(C)c1c(-c2cn(C)c3ncccc23)[nH]c2sc(C3CCN(C(C)C)CC3)nc12 [Example 36, 6-isopropyl-2-(1-isopropylpiperidin-4-yl)-5-(1-methyl-1H-pyrrolo[2,3-b]pyridin-3-yl)-4H-pyrrolo[3,2-d]thiazole]",1300,1540,25.2
"CC(C)c1c(-c2ccc(C#N)c3ncccc23)[nH]c2sc(C3CCN(C4COC4)CC3)nc12 [Example 37, 5-(6-isopropyl-2-(1-(oxetan-3-yl)piperidin-4-yl)-4H-pyrrolo[3,2-d]thiazol-5-yl)quinoline-8-carbonitrile]",12.1,27,27.9
"CC(C)c1c(-c2ccc(C#N)c3ncccc23)[nH]c2sc(C3CCN(C4CCOCC4)CC3)nc12 [Example 38, 5-(6-isopropyl-2-(1-(tetrahydro-2H-pyran-4-yl)piperidin-4-yl)-4H-pyrrolo[3,2-d]thiazol-5-yl) quinoline-8-carbonitrile]",7.93,4.43,2.28
"CC(C)c1c(-c2ccc(C#N)c3ncccc23)[nH]c2sc(C3CCN(C(=O)CN(C)C)CC3)nc12 [Example 39, 5-(2-(1-(dimethylglycyl)piperidin-4-yl)-6-isopropyl-4H-pyrrolo[3,2-d]thiazol-5-yl)quinoline-8-carbonitrile]",8.31,25.5,3.56
"CC(C)c1c(-c2ccc(C#N)c3ncccc23)[nH]c2sc(C3CCN(CC(=O)N(C)C)CC3)nc12 [Example 40, 2-(4-(5-(8-cyanoquinolin-5-yl)-6-isopropyl-4H-pyrrolo[3,2-d]thiazol-2-yl)piperidin-1-yl)-N,N-dimethylacetamide]",29.9,31.1,18.9
"Cc1c(-c2[nH]c3sc(C4CCNCC4)nc3c2C(C)C)cn2ncnc2c1C [Example 41, 5-(7,8-dimethyl-[1,2,4]triazolo[1,5-a]pyridin-6-yl)-6-isopropyl-2-(piperidin-4-yl)-4H-pyrrolo[3,2-d]thiazole]",1.19,2.66,8.43
"Cc1c(-c2[nH]c3sc(C4CCNCC4)nc3c2C(C)C)cn(C)c(=O)c1C [Example 42, 5-(6-isopropyl-2-(piperidin-4-yl)-4H-pyrrolo[3,2-d]thiazol-5-yl)-1,3,4-trimethylpyridin-2(1H)-one]",2.99,6.77,19
"Cc1c(-c2[nH]c3sc(C4CCN(C(C)C)CC4)nc3c2C(C)C)cn2ncnc2c1C [Example 44, 5-(7,8-dimethyl-[1,2,4]triazolo[1,5-a]pyridin-6-yl)-6-isopropyl-2-(1-isopropylpiperidin-4-yl)-4H-pyrrolo[3,2-d]thiazole]",1.68,0.63,15.1
"Cc1c(-c2[nH]c3sc(C4CCN(S(C)(=O)=O)CC4)nc3c2C(C)C)cn2ncnc2c1C [Example 45, 5-(7,8-dimethyl-[1,2,4]triazolo[1,5-a]pyridin-6-yl)-6-isopropyl-2-(1-(methylsulfonyl)piperidin-4-yl)-4H-pyrrolo[3,2-d]thiazole]",1.84,19.5,45.4
"Cc1c(-c2[nH]c3sc(C4CCN(C5CCOCC5)CC4)nc3c2C(C)C)cn2ncnc2c1C [Example 46, 5-(7,8-dimethyl-[1,2,4]triazolo[1,5-a]pyridin-6-yl)-6-isopropyl-2-(1-(tetrahydro-2H-pyran-4-yl)piperidin-4-yl)-4H-pyrrolo[3,2-d]thiazole]",0.57,0.11,2.5
"Cc1c(-c2[nH]c3sc(C4CCN(CC5(C)COC5)CC4)nc3c2C(C)C)cn2ncnc2c1C [Example 47, 5-(7,8-dimethyl-[1,2,4]triazolo[1,5-a]pyridin-6-yl)-6-isopropyl-2-(1-((3-methyloxetan-3-yl)methyl)piperidin-4-yl)-4H-pyrrolo[3,2-d]thiazole]",2.92,0.56,6.84
"Cc1c(-c2[nH]c3sc(C4CCN(CC5CCOCC5)CC4)nc3c2C(C)C)cn2ncnc2c1C [Example 48, 5-(7,8-dimethyl-[1,2,4]triazolo[1,5-a]pyridin-6-yl)-6-isopropyl-2-(1-((tetrahydro-2H-pyran-4-yl)methyl)piperidin-4-yl)-4H-pyrrolo[3,2-d]thiazole]",6.02,4.32,19.5
